Reference: patent US20150329505A1, “A FLUORESCENT COMPOSITION FOR USE IN MARKING OBJECTS, SUCH AS FLOWERS” (BIOCONST PTY LTD, priority 2012, published 2015)
Where a name gives a salt, the structure may show the parent alone. Read-outs that look alike come from different tables or passages of the source.

Tests used:
flowers [1] = settings: in vivo
Protocol: (§2) The above solutions were prepared by adding the fluorophore to tap water, in order to test the properties of the fluorophores in a non-sterilised, non-purified aqueous solution. The solutions were placed into a spray device for application to the surface of the relevant plants.
(§3) Solutions were sprayed onto chrysanthemums and roses and allowed to dry overnight at room temperature.

flowers [2] = assay: Effect of sprayed solutions on wilting and vase life of flowers
Protocol: as §2, §3

chrysanthemum flower = assay: Uptake of fluorophore by cut flowers; format: in vivo; settings: cut stems in 0.1% (w/v) pyranine, 0.5% (w/v) sucrose overnight
Protocol: (§1) Freshly cut stems of flowers (roses and chrysanthemums) were prepared and the ends of the stems placed in a solution of 0.1% (w/v) pyranine, 0.5% (w/v) sucrose. The cut end of the flowers was left in the solution overnight and uptake of the fluorophore viewed under UVA light.

rose flower = assay: Uptake of fluorophore by cut flowers; format: in vivo; settings: cut stems in 0.1% (w/v) pyranine, 0.5% (w/v) sucrose overnight
Protocol: as §1

[3] = Effect of time of UV exposure on fluorescence; format: physicochemical; settings: 0.1% (w/v) sprayed on flowers, 6 hours, UV torch 50,000 μW/cm2
Protocol: The effect of long term exposure of UV light was tested on flowers sprayed with fluorophore
Flowers were sprayed with 0.1% (w/v) pyranine solution. The flowers were allowed to dry overnight. A UV torch Optimax™ 365, having an intensity of 50,000 μW/cm2 was shone on the sprayed flowers.

[4] = Autoclaving of fluorophore solutions; format: physicochemical; settings: 0.5% (w/v) of the sugar, 0.1% pyranine, 0.1% sodium bicarbonate, autoclaved at 121° C.
Protocol: Fluorophore solution containing sugar caused the increase in growth of bacteria and fungus.
Fluorophore solution was prepared containing 0.1% (w/v) pyranine, 0.5% (w/v) sucrose, 0.1% (w/v) sodium bicarbonate. A similar solution was prepared with the same concentration of fructose. A small quantity of both the solutions prepared was kept aside for future use. Both the solutions were autoclaved at 121° C. in an Atherton Squirrel autoclave. This was then allowed to cool to room temperature and sprayed on flowers. Solutions which were kept aside previously (and which were not auto-claved) were also sprayed onto flowers. A negative control with no spray was also used to monitor vase life.

[5] = Fluorescence emitted by sprayed flowers when excited by UV light; settings: 0.1% pyranine, 0.5% sugar, 0.1% sodium bicarbonate, pH 7.72, dried overnight, then 1 mM, 1.5 mM and 2 mM HCl

COC(=O)c1ccc(O)cc1 [methylparaben]
wilting and vase life (flowers [1]): caused wilting of the flowers and reduced the vase-life of the flower

O=C([O-])O.[Na+] [sodium bicarbonate]
vase life (flowers [1]): did not affect the vase-life of the flower

O=S(=O)([O-])c1cc(O)c2ccc3c(S(=O)(=O)[O-])cc(S(=O)(=O)[O-])c4ccc1c2c34.[Na+].[Na+].[Na+] [pyranine, 8-Hydroxypyrene-1,3,6-trisulfonic acid trisodium salt]
vase life of flower (flowers [2]; 0.05% (w/v) in tap water, sprayed onto chrysanthemums and roses): did not affect the vase life of flower | vase life (flowers [2]; 0.05% to 0.5% (w/v) in tap water): did not affect vase life | uptake of the fluorophore viewed under UVA light (chrysanthemum flower): The veins in the petals of the flower demonstrate fluorescence | uptake of the fluorophore viewed under UVA light (rose flower): The veins in the petals of the flower demonstrate fluorescence | change of fluorescence on continuous UV exposure [3]: no visible change in the colour of fluorescence

O=C(CO)[C@@H](O)[C@H](O)[C@H](O)CO [fructose]
appearance of the solution after autoclaving [4]: dark brown

Cl [HCl]
change of fluorescence colour after acidic spray [5]: no change in colour to fluorescent blue

O=C1OC2(c3ccc(O)cc3Oc3cc(O)ccc32)c2ccccc21 [Fluorescein, reference compound]
wilting of flowers and vase life (flowers [1]): caused wilting of flowers and reduced vase life

OC[C@H]1O[C@@](CO)(O[C@H]2O[C@H](CO)[C@@H](O)[C@H](O)[C@H]2O)[C@@H](O)[C@@H]1O [sucrose]
appearance of the solution after autoclaving [4]: fluorescent green

O=C([O-])c1ccccc1-c1c2cc(Br)c(=O)c(Br)c-2oc2c(Br)c([O-])c(Br)cc12.[Na+].[Na+] [Eosin Y, reference compound]
wilting of flowers and vase life (flowers [2]; 0.5% (w/v) in tap water, sprayed onto chrysanthemums and roses, dried overnight): caused wilting of flowers and reduced vase life
